Values belong to the compound of their own block, whether it stands above or below them.
Experiments:
Breast cancer cell line = assay: Cytotoxicity against human Breast cancer cell line
[1] = Cytotoxicity against human Triple-negative breast cancer cell; conditions: Breast carcinoma cell
[2] = molecular target: T1, E3 ubiquitin-protein ligase Mdm2 (Homo sapiens, UniProt Q00987)
L02 = assay: Antiproliferative activity against human L02 cells assessed as reduction in cell growth
HCT-116 [3] = assay: Antiproliferative activity against human HCT-116 cells assessed as reduction in cell growth
SH-SY5Y = assay: Antiproliferative activity against human SH-SY5Y cells assessed as reduction in cell growth
SJSA-1 = assay: Antiproliferative activity against human SJSA-1 cells assessed as reduction in cell growth
[4] = Antiproliferative activity against human BEAS-2B cells assessed as reduction in cell growth
[5] = molecular target: T1, E3 ubiquitin-protein ligase Mdm2; assay: Binding affinity to MDM2 (unknown origin) assessed as dissociation constant
OCI-AML-3 = assay: Antiproliferative activity against human OCI-AML-3 cells assessed as reduction in cell viability measured for 48 hrs by MTT assay; conditions: OCI-AML-3, 48 h
HCT-116 [6] = assay: Antiproliferative activity against human HCT-116 cells assessed as reduction in cell viability measured for 48 hrs by MTT assay; conditions: HCT-116, 48 h
A549 = assay: Antiproliferative activity against human A549 cells assessed as reduction in cell viability measured for 48 hrs by MTT assay; conditions: A549, 48 h
MCF7 [7] = assay: Antiproliferative activity against human MCF7 cells assessed as reduction in cell viability measured for 48 hrs by MTT assay; conditions: MCF7, 48 h
HCT-116 [8] = assay: Antiproliferative activity against human HCT-116 cells assessed as reduction in cell viability incubated for 24 hrs by Celltiter-Glo assay; conditions: HCT-116, 24 h
Protein Mdm4 [9] = molecular target: T2, Protein Mdm4 (Homo sapiens, UniProt O15151); assay: Inhibition of MDMX (unknown origin)
T2 sequence (O15151 whole entry): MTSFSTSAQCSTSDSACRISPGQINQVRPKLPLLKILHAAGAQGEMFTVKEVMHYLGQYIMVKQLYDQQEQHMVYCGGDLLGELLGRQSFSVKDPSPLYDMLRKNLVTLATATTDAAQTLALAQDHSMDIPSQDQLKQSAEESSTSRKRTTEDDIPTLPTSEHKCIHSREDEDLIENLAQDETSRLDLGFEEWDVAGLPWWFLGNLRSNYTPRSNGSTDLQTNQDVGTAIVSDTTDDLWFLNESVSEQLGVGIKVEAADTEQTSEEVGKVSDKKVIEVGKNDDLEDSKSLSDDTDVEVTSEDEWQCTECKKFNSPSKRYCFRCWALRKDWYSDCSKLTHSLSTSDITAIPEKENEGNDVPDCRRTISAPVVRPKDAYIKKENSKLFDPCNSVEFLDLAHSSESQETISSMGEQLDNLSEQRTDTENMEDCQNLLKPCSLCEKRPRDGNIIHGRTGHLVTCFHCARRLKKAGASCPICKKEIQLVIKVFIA

[10] = molecular target: T1, E3 ubiquitin-protein ligase Mdm2; assay: Inhibition of MDM2 (unknown origin)
MCF7 [11] = assay: Antiproliferative activity against human MCF7 cells assessed as reduction in cell viability incubated for 24 hrs by Celltiter-Glo assay; conditions: MCF7, 24 h
HL-60 = assay: Antiproliferative activity against human HL-60 cells assessed as reduction in cell viability incubated for 24 hrs by Celltiter-Glo assay; conditions: HL-60, 24 h
[12] = molecular target: T1, E3 ubiquitin-protein ligase Mdm2; assay: Binding affinity to MDM2 (unknown origin) assessed as inhibition constant
OCI-AML2 = assay: Antiproliferative activity against human OCI-AML2 cells assessed as reduction in cell viability incubated for 24 hrs by Celltiter-Glo assay; conditions: OCI-AML2, 24 h
Protein Mdm4 [13] = molecular target: T2, Protein Mdm4; assay: Binding affinity to MDMX (unknown origin) assessed as inhibition constant
LNCaP [14] = assay: Antiproliferative activity against human LNCaP cells assessed as reduction in cell viability incubated for 24 hrs by Celltiter-Glo assay
DU-145 [15] = assay: Antiproliferative activity against human DU-145 cells assessed as reduction in cell viability incubated for 24 hrs by Celltiter-Glo assay; conditions: DU-145, 24 h
PC-3 [16] = assay: Antiproliferative activity against human PC-3 cells assessed as reduction in cell viability incubated for 24 hrs by Celltiter-Glo assay; conditions: PC-3, 24 h
[17] = Antiproliferative activity against human IMR-90 cells assessed as reduction in cell viability incubated for 24 hrs by Celltiter-Glo assay
MCF7 [18] = assay: Cytotoxicity against human MCF7 cells assessed as reduction in cell growth
BT-474 = assay: Cytotoxicity against human BT-474 cells assessed as cell growth inhibition
MDA-MB-175-VII = assay: cells; conditions: Homo sapiens
Description: Cytotoxicity against human MDA-MB-175-VII cells assessed as reduction in cell growth

MKN-45 = assay: Cytotoxicity against human MKN-45 cells assessed as reduction in cell growth incubated for 48 hrs by MTT assay; conditions: MKN-45, 48 h
SGC-7901 = assay: Cytotoxicity against human SGC-7901 cells assessed as reduction in cell growth incubated for 48 hrs by MTT assay; conditions: SGC-7901, 48 h
ZR-75-30 = assay: Cytotoxicity against human ZR-75-30 cells assessed as reduction in cell growth
NCI-N87 = assay: Cytotoxicity against human NCI-N87 cells assessed as reduction in cell growth incubated for 48 hrs by MTT assay; conditions: NCI-N87, 48 h
HGC-27 = assay: Cytotoxicity against human HGC-27 cells assessed as reduction in cell growth incubated for 48 hrs by MTT assay; conditions: HGC-27, 48 h
Prostatic carcinoma cell = assay: Cytotoxicity against human Prostatic carcinoma cell
ZR-75-1 = assay: Cytotoxicity against human ZR-75-1 cells assessed as reduction in cell growth
Hs-578T = assay: cells; conditions: Homo sapiens
Description: Cytotoxicity against human Hs-578T cells assessed as cell growth inhibition

[19] = tested on: KATO III stomach cancer cell line; assay: Cytotoxicity against human KATO III stomach cancer cell line assessed as reduction in cell growth incubated for 48 hrs by MTT assay
BGC-823 = assay: Cytotoxicity against human BGC-823 cells assessed as reduction in cell growth incubated for 48 hrs by MTT assay; conditions: BGC-823, 48 h
BT-549 = assay: Cytotoxicity against human BT-549 cells assessed as cell growth inhibition
Protein Mdm4 [20] = molecular target: T2, Protein Mdm4
[21] = Antiproliferative activity against human RWPE-1 cells assessed as reduction in cell viability incubated for 24 hrs by Celltiter-Glo assay
SW480 = assay: Antiproliferative activity against human SW480 cells assessed as reduction in cell growth
MDA-MB-435 = assay: Antiproliferative activity against human MDA-MB-435 cells assessed as reduction in cell growth
LNCaP [22] = assay: Antiproliferative activity against human LNCaP cells assessed as reduction in cell growth
RKO = assay: Antiproliferative activity against human RKO cells assessed as reduction in cell growth
LNCaP C4-2 = assay: Antiproliferative activity against human C4-2 cells assessed as reduction in cell growth
PC-3 [23] = assay: Antiproliferative activity against human PC-3 cells assessed as reduction in cell growth
HCT-116 [24] = assay: Antiproliferative activity against human HCT-116 cells assessed as reduction in cell growth by MTT assay
LAPC4 = assay: Antiproliferative activity against human LAPC4 cells assessed as reduction in cell growth
DU-145 [25] = assay: Antiproliferative activity against human DU-145 cells assessed as reduction in cell growth
MCF7 [26] = assay: Antiproliferative activity against human MCF7 cells assessed as reduction in cell growth
[27] = Antiproliferative activity against human U373 MG cells assessed as reduction in cell growth incubated for 72 hrs by MTS assay
MCF7 [28] = assay: Antiproliferative activity against human MCF7 cells assessed as reduction in cell growth incubated for 72 hrs by MTS assay; conditions: MCF7, 72 h
[29] = Antiproliferative activity against human C20/A4 cells assessed as reduction in cell growth incubated for 72 hrs by MTS assay
T98G = assay: Antiproliferative activity against human T98G cells assessed as reduction in cell growth incubated for 72 hrs by MTS assay
U-87 MG = assay: Antiproliferative activity against human U-87 MG cells assessed as reduction in cell growth incubated for 72 hrs by MTS assay

T1 sequence (Q00987 whole entry): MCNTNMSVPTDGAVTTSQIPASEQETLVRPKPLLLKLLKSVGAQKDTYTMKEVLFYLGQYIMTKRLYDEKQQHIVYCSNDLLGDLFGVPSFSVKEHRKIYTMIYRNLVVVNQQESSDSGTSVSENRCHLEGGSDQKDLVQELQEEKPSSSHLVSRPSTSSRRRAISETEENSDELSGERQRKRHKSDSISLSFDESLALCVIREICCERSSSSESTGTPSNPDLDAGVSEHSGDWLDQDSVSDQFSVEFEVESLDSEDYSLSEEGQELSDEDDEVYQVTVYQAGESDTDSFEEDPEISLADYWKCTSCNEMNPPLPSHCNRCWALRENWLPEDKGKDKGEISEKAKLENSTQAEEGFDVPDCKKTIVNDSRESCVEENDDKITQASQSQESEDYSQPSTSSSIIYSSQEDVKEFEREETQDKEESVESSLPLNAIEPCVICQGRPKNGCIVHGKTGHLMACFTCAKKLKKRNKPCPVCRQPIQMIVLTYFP

Compound: Brc1c2ccccc2c(C[P+](c2ccccc2)(c2ccccc2)c2ccccc2)c2ccccc12
IC50 (Breast cancer cell line): 3700 nM
IC50 [1]: 3700 nM

Kd [2]: 149000 nM
Compound: Ac-ETFLDLWKLELEN-NH2

Compound: CN(C)C1CCN(C(=O)CCC(=O)C(c2ccc(Cl)cc2)C(C(=O)c2ccc(Cl)cc2)c2ccc(F)cc2Cl)CC1 (stereo not given)
IC50 (L02): 15900 nM
IC50 (HCT-116 [3]): 700 nM
IC50 (SH-SY5Y): 500 nM
IC50 (SJSA-1): 600 nM
IC50 [4]: 18000 nM

Kd [5]: < 0.1 nM
Compound: C[C@@H](c1ccc(Cl)cc1Cl)n1cnc(-c2ccccc2)c1-c1c(C(=O)Nc2cc(C(=O)O)ccc2N2CCC(N3CCCOC3=O)CC2)[nH]c2cc(Cl)ccc12

Compound: O=C(CCC(=O)N1CCNCC1)C(c1ccc(Cl)cc1)C(C(=O)c1ccc(Cl)cc1)c1ccc(F)cc1Cl (stereo not given)
IC50 (L02): 12600 nM
IC50 (HCT-116 [3]): 700 nM
IC50 (SH-SY5Y): 700 nM
IC50 (SJSA-1): 600 nM
IC50 [4]: 16300 nM

Compound: N#Cc1c2ccc(N)cc2nc2cc(N)ccc12
IC50 (OCI-AML-3): 1300 nM
IC50 (HCT-116 [6]): 2800 nM
IC50 (A549): 5300 nM
IC50 (MCF7 [7]): 4300 nM

Compound: Cc1ccnc(NC(c2cccc(Cl)c2Cl)c2ccc3cccnc3c2O)c1 (stereo not given)
IC50 (HCT-116 [8]): 600 nM

Compound: CC(C)C(=O)Nc1ccccc1SC(=O)C(C)C
IC50 (OCI-AML-3): 18000 nM
IC50 (Protein Mdm4 [9]): 1500 nM
IC50 (HCT-116 [6]): 16000 nM
IC50 (A549): > 30000 nM
IC50 (MCF7 [7]): 18000 nM
IC50 [10]: 13100 nM

Compound: O=c1cc(-c2ccc(Oc3c(O)cc4oc(-c5ccc(O)cc5)cc(=O)c4c3O)cc2)oc2cc(O)cc(O)c12 [HINOKIFLAVONE]
IC50 (MCF7 [11]): 16300 nM
IC50 (HL-60): 11000 nM
Ki [12]: 13000 nM
IC50 (OCI-AML2): 4900 nM
IC50 (HCT-116 [8]): 14200 nM
Ki (Protein Mdm4 [13]): 12000 nM

Compound: C=C1C(=O)O[C@H]2C[C@H](C)[C@@]34C[C@]5(C(=O)OC6CC(C)=C([C@H](C)CCCOC(C)=O)[C@@H](O)C65)[C@@H](C(C)=C3C[C@H]12)C4OC(C)=O (stereo not given in full)
IC50 (LNCaP [14]): 1700 nM
IC50 (DU-145 [15]): 4000 nM
IC50 (PC-3 [16]): 1300 nM
IC50 at 24 h [17]: > 50000 nM

Compound: Cc1c2ccccc2c(CSC(=N)N)c2ccccc12
IC50 (MCF7 [18]): 1500 nM
IC50 (BT-474): 1500 nM
IC50 (MDA-MB-175-VII): 1500 nM
IC50 (MKN-45): 1200 nM
IC50 (SGC-7901): 1200 nM
IC50 (ZR-75-30): 1500 nM
IC50 (NCI-N87): 1200 nM
IC50 (HGC-27): 1200 nM
IC50 (Prostatic carcinoma cell): 1500 nM
IC50 (ZR-75-1): 1500 nM
IC50 (Hs-578T): 1500 nM
IC50 [19]: 1200 nM
IC50 (BGC-823): 1200 nM
IC50 (BT-549): 1500 nM

Kd (Protein Mdm4 [20]): 109000 nM
Compound: Ac-ETFLDLWRLLLQN-NH2

Compound: COC(C)(C)CCC[C@](C)(O)[C@H]1CC[C@]2(C)[C@@H]1[C@H](O)C[C@@H]1[C@@]3(C)CC[C@H](O)C(C)(C)[C@@H]3CC[C@]12C
IC50 (LNCaP [14]): 9600 nM
IC50 (DU-145 [15]): 7600 nM
IC50 (PC-3 [16]): 4400 nM
IC50 at 24 h [21]: > 50000 nM

IC50 [10]: > 50000 nM
Compound: COc1cccc2c1NCC2C(=O)N[C@H]1CCN(c2ccc(C)cc2)C1 (stereo not given in full)

Compound: Cc1c(Cl)ccc2c(/C=C3\NC(=O)N(C(C(=O)NC(CO)CO)c4ccc(F)c(F)c4)C3=O)c[nH]c12 (stereo not given)
IC50 (SW480): > 50000 nM
IC50 (MDA-MB-435): 25300 nM
IC50 (LNCaP [22]): 1100 nM
IC50 (RKO): 3200 nM
IC50 (LNCaP C4-2): 1700 nM
IC50 (PC-3 [23]): 45300 nM
IC50 (HCT-116 [24]): 3000 nM
IC50 (LAPC4): 1200 nM
IC50 (DU-145 [25]): 45500 nM
IC50 (MCF7 [26]): 3500 nM

Compound: Cc1c(Cl)ccc2c(/C=C3\NC(=O)N(Cc4ccc(F)c(F)c4)C3=O)c[nH]c12
IC50 [27]: 1000 nM
IC50 (MCF7 [28]): 1900 nM
IC50 at 72 h [29]: 4500 nM
IC50 (T98G): > 10000 nM
IC50 (U-87 MG): 1400 nM

Reference: ChEMBL document CHEMBL5579884, “Cellular, Structural Basis, and Recent Progress for Targeting Murine Double Minute X (MDMX) in Tumors” (J Med Chem, 2024)
